From PubChem BioAssay AID2060512 (Molecular Pharmacology Branch, DTP, NCI, 2025)

Test system: 186277-243-T-J2-PDC complex spheroid viability
Assay: Anticancer human tumor 186277-243-T-J2-PDC patient-derived colon adenocarcinoma cell line growth inhibition [GQUAD]
Conditions: for IC50: curve of first compound; for viability, T/C: stronger effect = lower value
Source text: DNA G-quadruplex Stabilizer Agents in Combinations in Complex Spheroids
A high-throughput screen of multi-cell type tumor spheroids was designed to identify active combinations of DNA G-quadruplex stabilizer agents and targeted small molecules. Complex spheroids include a stromal component modeled by human endothelial cells (HUVEC) and fibroblasts modeled by human mesenchymal stem cells (MSCs). The concentration ranges selected for each drug and investigational agent were based upon clinically achievable concentrations if the clinical Cmax of the agent was known.
Compounds. The drugs and investigational agents: pidnarulex (CX-5461; NSC782164), APTO-253 (NSC789042), BRACO-19 (NSC847499), peposertib (NSC802822), ceralasertib (NSC780249), elimusertib (NSC800525), camonsertib (NSC841442), AZD-1390 (NSC803789), olaparib (NSC753686), talazoparib (NSC767125), ART-558 (NSC835418), sotorasib (NSC818433), MRTX-1133 (NSC836407), SN-38 (NSC673596), topotecan (NSC609699), etoposide (NSC141540), doxorubicin (NSC123127), gemcitabine (NSC613327), 5-fluorouracil (NSC19893), paclitaxel (NSC125973), vemurafenib (NSC761431), panobinostat (NSC761190), R-306465 (JNJ-16241199; NSC773264), adavosertib (NSC754352), TP-3654 (NSC805149), carboplatin (NSC241240), KSQ-4279 (NSC840948), and staurosporine (NSC755774) were obtained from the National Cancer Institute (NCI) Developmental Therapeutics Program Chemical Repository (34). The FDA-approved anticancer drug set is available from the NCI Developmental Therapeutics Program. […] The stock solutions were prepared in dimethyl sulfoxide (DMSO, Sigma-Aldrich, St. Louis, MO, cat. D2650) at 800-fold the tested concentration and stored at -70 degrees C prior to their use. All drugs and investigational agents were tested over a range starting from a high concentration at or near the clinical Cmax and decreasing in half-log increments. If the clinical Cmax for an agent had not been determined, the highest concentration tested was 10 microM.
2.3 Cell Culture. All cells were maintained in an incubator at 37 degrees C and 5% CO2 with 95% humidity. The PDC lines were cultured according to standard operating procedures established by the NCI PDMR. All PDCs were thawed and cultured in Matrigel-coated flasks prepared with a working solution of 1X Ham's F-12 nutrient mix, without supplementation (Invitrogen, cat. 11765054), 100 U/mL penicillin-streptomycin (Invitrogen, cat. 15140122), and 2.5% Matrigel (Corning Inc., cat. 354248) for the first three passages. The 857933-349-R-J2-PDC line was cultured in 6C/Colon 1B media, which includes advanced DMEM/F-12 (Thermo Fisher Scientific, cat. 12634028), 10 mM HEPES (Thermo Fisher Scientific, cat. 15630080), 1X GlutaMAX supplement (Thermo Fisher Scientific, cat. 35050061), 0.1 mg/mL primocin (InvivoGen, cat. ant-pm-2), 10% defined fetal bovine serum, heat inactivated (HyClone Laboratories Inc., cat. SH30070.03HI), 50% L-WRN conditioned media (ATCC, cat. CRL-3276), 1.25 mM N-Acetyl-L-cysteine (Sigma-Aldrich, cat. A9165), 10 mM nicotinamide (Sigma-Aldrich, cat. N0636), 1X B-27 supplement (Thermo Fisher Scientific, cat. 17504044), 1X N-2 supplement (Thermo Fisher Scientific, cat. 17502048), 10 microM Y-27632 dihydrochloride (Tocris Bioscience, cat. 1254), and 50 ng/mL human EGF recombinant protein (Thermo Fisher Scientific, cat. PHG0311). The 485176-168-R4-J1-PDC line was cultured in Panc media, which includes all 6C/Colon 1B media components plus 100 ng/mL human FGF-10 (Thermo Fisher Scientific, cat. 100-26), 500 nM SB-431542 (Selleckchem, cat. S1067), and gastrin (Tocris, cat. 3006).
[…]
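Further: spheroids exposed to drugs for 7 days.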
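Wherever viability, T/C is given: 100% = DMSO vehicle control viability.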

COc1ccc([C@@H](O)c2cc(-c3ncnc4cc(N5CCOCC5)ccc34)c(F)cc2Cl)nn1 + Cc1[nH]c2ccc(F)cc2c1-c1nc2c3cccnc3c3ncccc3c2[nH]1
IC50 (second compound 0.0316 µM): 4.92 µM
IC50 (second compound 0.1 µM): 6.89 µM
IC50 (second compound 0.316 µM): 6.47 µM
IC50 (second compound 1 µM): 5.92 µM
IC50 (second compound 3.16 µM): 4.99 µM
IC50 (second compound 10 µM): 5.74 µM
viability, T/C (second compound 0.0316 µM, first compound 0.0316 µM): 95.7%
viability, T/C (second compound 0.0316 µM, first compound 0.1 µM): 101%
viability, T/C (second compound 0.0316 µM, first compound 0.316 µM): 97.2%
viability, T/C (second compound 0.0316 µM, first compound 1 µM): 80.9%
viability, T/C (second compound 0.0316 µM, first compound 3.16 µM): 66.3%
viability, T/C (second compound 0.0316 µM, first compound 10 µM): 25.9%
viability, T/C (second compound 0.1 µM, first compound 0.0316 µM): 94.5%
viability, T/C (second compound 0.1 µM, first compound 0.1 µM): 89.9%
viability, T/C (second compound 0.1 µM, first compound 0.316 µM): 104%
viability, T/C (second compound 0.1 µM, first compound 1 µM): 99.5%
viability, T/C (second compound 0.1 µM, first compound 3.16 µM): 85.2%
viability, T/C (second compound 0.1 µM, first compound 10 µM): 33.1%
viability, T/C (second compound 0.316 µM, first compound 0.0316 µM): 105%
viability, T/C (second compound 0.316 µM, first compound 0.1 µM): 94.8%
viability, T/C (second compound 0.316 µM, first compound 0.316 µM): 103%
viability, T/C (second compound 0.316 µM, first compound 1 µM): 106%
viability, T/C (second compound 0.316 µM, first compound 3.16 µM): 81.5%
viability, T/C (second compound 0.316 µM, first compound 10 µM): 30.9%
viability, T/C (second compound 1 µM, first compound 0.0316 µM): 89.2%
viability, T/C (second compound 1 µM, first compound 0.1 µM): 90%
viability, T/C (second compound 1 µM, first compound 0.316 µM): 115%
viability, T/C (second compound 1 µM, first compound 1 µM): 102%
viability, T/C (second compound 1 µM, first compound 3.16 µM): 71.2%
viability, T/C (second compound 1 µM, first compound 10 µM): 32.4%
viability, T/C (second compound 3.16 µM, first compound 0.0316 µM): 93.4%
viability, T/C (second compound 3.16 µM, first compound 0.1 µM): 92.7%
viability, T/C (second compound 3.16 µM, first compound 0.316 µM): 112%
viability, T/C (second compound 3.16 µM, first compound 1 µM): 85.3%
viability, T/C (second compound 3.16 µM, first compound 3.16 µM): 68.6%
viability, T/C (second compound 3.16 µM, first compound 10 µM): 23.2%
viability, T/C (second compound 10 µM, first compound 0.0316 µM): 93.4%
viability, T/C (second compound 10 µM, first compound 0.1 µM): 91.4%
viability, T/C (second compound 10 µM, first compound 0.316 µM): 114%
viability, T/C (second compound 10 µM, first compound 1 µM): 88.8%
viability, T/C (second compound 10 µM, first compound 3.16 µM): 66.7%
viability, T/C (second compound 10 µM, first compound 10 µM): 34.9%
